Values of other authors in US20220000962A1, “PLANT-BASED BIOLOGICALLY ACTIVE SUBSTANCE HAVING A POLYPHARMACOLOGICAL EFFECT” (priority 2015, published 2022).

System: CMV
Conditions: tricin obtained from Sasa albo-marginata

Q: For `COc1cc(-c2cc(=O)c3c(O)cc(O)cc3o2)cc(OC)c1O` [tricin, 5,7,4-trihydroxy-3′,5′-dimethoxyflavone], which “concentration which inhibits development of CMV infection on the cellular level for 50%” value is on record?
A: 0.139 µg/mL

Q: What about the IC50 (read-out: concentration which inhibits development of CMV infection on the cellular level for 50%) of the same compound?
A: 420 nM
